For assay [1], the system named is GST-Fyn-SH3-SH2. The assay is described as follows: High-speed CE competition / binding, GST-Fyn-SH3-SH2 with Fluor-Fyn peptide.
For a further assay, the system named is Fyn-SH3-SH2. The note with it: 100 V/cm for Ld of 30 cm; 100 and 200 V/cm for Ld of 40 cm; t1/2 not measured.
The test system of assay [2] is GST-Fyn-SH3-SH2. The assay is described as follows: NECEEM, GST-Fyn-SH3-SH2:Fluor-Fyn peptide complex. Type of assay: binding. The note with it: 2 μM GST-Fyn-SH3-SH2, 100 nM Fluor-Fyn peptide, pH 8.5.

This is an account of results in PMC2763920 (Electrophoresis, 2009).

In the case of “fluorescein-EEEEPQpYEEIPIYL [Fluor-Fyn peptide]”, the “number of complexes detected (high-speed CE), GST-Fyn-SH2-SH3” value in the assay with GST-Fyn-SH3-SH2 [1] (500 nM protein, 200 nM Fluor-Fyn peptide) is reported as “two distinct complexes were detected”. For the same substance, the “complex 1-to-complex 2 ratio with increasing peptide concentration” value with GST-Fyn-SH3-SH2 [1] (Fluor-Fyn peptide 50 nM to 700 nM, protein 500 nM) is given as “decreases with increasing peptide concentration”. For the same substance, the “protein concentration dependency of complex formation: low range” value in the assay with GST-Fyn-SH3-SH2 [1] (GST-Fyn-SH3-SH2 0.1 μM to 0.5 μM, Fluor-Fyn peptide 200 nM) is recorded as “complex 2 increases”. Further, in the assay with GST-Fyn-SH3-SH2 [1] (for t1/2 of 22 s and separation time of 3.8 s), the “complex expected to dissociate over the course of separation” value is recorded as 2%. For the same substance, the “dissociation of the complex at low electric field (NECEEM)” value with Fyn-SH3-SH2 is reported as “complete dissociation of the complex”. In the assay with GST-Fyn-SH3-SH2 [2], the “complexes observed (NECEEM)” value is given as “two incompletely resolved peaks”.
